Measurements reported in patent US5739157A, “Diastereomeric pure trifluoromethyl ketone peptide derivatives as inhibitors of human leukocyte elastase” (Zeneca Limited, priority 1994, dated 1998).
Like-named read-outs stand apart in the source and are kept apart here.

Columns and labels:
[1] = molecular target: T1, human neutrophil elastase (HNE) (Homo sapiens, UniProt P08246); assay: Acute Hemorrhagic Assay: HNE-induced lung hemorrhage; assay type: in vivo, Syrian hamsters; settings: hamster, hamsters, 50 μg/animal HNE intratracheally, read-out: ED50, inhibition of HNE-induced hemorrhage
T1 sequence (P08246 30-267): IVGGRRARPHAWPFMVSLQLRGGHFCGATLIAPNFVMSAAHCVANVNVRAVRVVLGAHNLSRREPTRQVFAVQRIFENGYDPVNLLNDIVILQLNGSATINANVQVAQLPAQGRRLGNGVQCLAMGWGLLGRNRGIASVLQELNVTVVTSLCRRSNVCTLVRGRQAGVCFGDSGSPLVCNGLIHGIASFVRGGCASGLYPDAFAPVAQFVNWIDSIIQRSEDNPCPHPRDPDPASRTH
Procedure: This assay relies on monitoring only the amount of hemorrhage in the lung following intratracheal administration of human neutrophil elastase (HNE). Hemorrhage is quantified by disrupting erythrocytes recovered in lung lavage fluid and comparing that to dilutions of whole hamster blood. […] Male Syrian hamsters (fasted for 16-18 hours prior to use) are lightly anaesthetised with Brevital sodium (30 mg/kg i.p.). […] Four hours after enzyme administration, the animals are killed with an overdose of pentobarbital sodium, the thorax opened and the lungs and heart removed and the lungs cleared of extraneous material. The excised lungs are lavaged with three changes of 2 ml PBS via a tracheal cannula. The recovered lavages are pooled, the volumes (about 5 mL) are recorded and the lavages stored at 4° C. until assayed. […] The optical densities (OD) of the disrupted lavages and blood samples are determined at 540 nm. The (μL blood equivalents)/(mL lavage) are determined by comparing the OD of the test samples with the OD of the standard curve prepared from whole hamster blood. The total μL equivalents of blood recovered is determined by multiplying recovered lavage volume by the (μL blood equivalents)/(mL lavage) for each sample.

[2] = administered in the above in vivo tests (hamsters)
[3] = Hygroscopicity of the anhydrous crystalline form; assay type: physicochemical
[4] = Epimeric stability in the solid state; assay type: physicochemical; settings: anhydrous form

**Q.** What does the source list for `COc1ccc(C(=O)N[C@H](C(=O)N2CCC[C@H]2C(=O)N[C@H](C(=O)C(F)(F)F)C(C)C)C(C)C)cc1` [compound of the invention, (S)-1-[(S)-2-(4-methoxybenzamido)-3-methylbutyryl]-N-[(S)-2-methyl-1-(trifluoroacetyl)propyl]pyrrolidine-2-carboxamide]?
**A.** ED50 ([1]; i.v. administration): 0.59 mg/kg; ED50 ([1]; oral dosing): 5.2 mg/kg; overt toxicity [2]: No overt toxicity; hygroscopicity [3]: non-hygroscopic; epimeric stability [4]: good epimeric stability
